Results on 21 molecules are retold here after ChEMBL document CHEMBL3351819, “Clofazimine analogs with antileishmanial and antiplasmodial activity” (Bioorg Med Chem, 2015).

SMILES strings stand for the structures. Bounds are passed on as bounds.

A short description of experiment [1]: Selectivity index, ratio of IC50 for HMEC1 to IC50 for chloroquine-sensitive Plasmodium falciparum D10.
The subject of experiment [2] is Plasmodium falciparum. Put plainly: Antiplasmodial activity against chloroquine-resistant Plasmodium falciparum W2 assessed as inhibition of parasite growth after 72 hrs by parasite lactate dehydrogenase assay. Conditions: W2, 72 h. In kind it is functional, organism-based.
For experiment [3], the system named is Plasmodium falciparum. Put plainly: Resistance index, ratio of IC50 for chloroquine-resistant Plasmodium falciparum W2 to IC50 for chloroquine-sensitive Plasmodium falciparum D10. In kind it is functional.
Experiment [4] concerns Plasmodium falciparum. Nature of the experiment: Antiplasmodial activity against chloroquine-sensitive Plasmodium falciparum D10 assessed as inhibition of parasite growth after 72 hrs by parasite lactate dehydrogenase assay. In kind it is functional, organism-based. Conditions: D10, 72 h.
Experiment [5] can be described thus: Selectivity index, ratio of IC50 for HMEC1 to IC50 for chloroquine-resistant Plasmodium falciparum W2.
Experiment [6] is described as follows: Selectivity index, ratio of IC50 for HMEC1 to IC50 for Leishmania tropica MHOM/IT/2012/ISS3130.
Experiment [7] can be described thus: Cytotoxicity against HMEC1 cells after 72 hrs by MTT assay. In kind it is cell-based. The note with it: Homo sapiens, HMEC-1, 72 h. (In general: Tetrazolium assays rely on reduction of a dye to a coloured formazan, in cell work by metabolically active cells.)
The test system of a further experiment is Leishmania tropica. Nature of the experiment: Antileishmanial activity against Leishmania tropica MHOM/IT/2012/ISS3130 promastigotes assessed as inhibition of parasite growth after 72 hrs by MTT assay. In kind it is functional, organism-based. The note with it: MHOM/IT/2012/ISS3130, 72 h.
The nature of experiment [8]: Selectivity index, ratio of IC50 for HMEC1 to IC50 for Leishmania infantum MHOM/TN/80/IPT1.
A further experiment has as its system Leishmania infantum. Put plainly: Antileishmanial activity against Leishmania infantum MHOM/TN/80/IPT1 promastigotes assessed as inhibition of parasite growth after 72 hrs by MTT assay. In kind it is functional, organism-based. The note with it: MHOM/TN/80/IPT1, 72 h.

As for `Cl.Clc1ccc(Nc2cc3nc4ccccc4n(-c4ccc(Cl)cc4)c-3c/c2=N/CC23CCCN2CCC3)cc1`, the Ratio IC50 in experiment [1] was 5.8; with Plasmodium falciparum [3], 1.2; in experiment [5], 4.8; in experiment [6], 0.5. Besides, the IC50 in the experiment on Plasmodium falciparum [2] is 0.75 µM; in the experiment with Plasmodium falciparum [4], 0.62 µM; in experiment [7], 3.57 µM; in the experiment with Leishmania tropica, 7.44 µM.
For the molecule `c1ccc(Nc2cc3nc4ccccc4n(-c4ccccc4)c-3c/c2=N/CCC[C@@H]2CCCN3CCCC[C@H]23)cc1`, the Ratio IC50 worked out at 36.6 in [1]; 0.5 in the experiment with Plasmodium falciparum [3]; 71.4 in [5]; 1.7 in experiment [6]; 2.8 in [8]. The IC50 in the experiment on Plasmodium falciparum [2] turned out to be 0.063 µM; in the experiment on Plasmodium falciparum [4], 0.12 µM; in experiment [7], 4.5 µM; in the experiment on Leishmania tropica it was 2.7 µM; in the experiment with Leishmania infantum, 1.59 µM.
For the molecule `Cc1ccc(Nc2cc3nc4ccccc4n(-c4ccc(C)cc4)c-3c/c2=N/C[C@@H]2CCCN3CCCC[C@H]23)cc1.Cl`, the Ratio IC50 came out at 7.5 in [1]; 1.9 with Plasmodium falciparum [3]; 3.9 in experiment [5]; 3.3 in experiment [6]; 3.4 in [8]. Besides, the IC50 in the experiment with Plasmodium falciparum [2] was found to be 0.4 µM; in the experiment on Plasmodium falciparum [4], 0.21 µM; in experiment [7], 1.57 µM; in the experiment with Leishmania tropica, 0.47 µM; with Leishmania infantum it was 0.46 µM.
`C[N+]12CCCCC1(CCCC/N=c1/cc3n(-c4ccccc4)c4ccccc4nc-3cc1Nc1ccccc1)CCCC2.[I-]` (configuration not stated): the Ratio IC50 is 58.2 in experiment [1]; 1.4 with Plasmodium falciparum [3]; 41 in experiment [5]; 10.1 in experiment [6]; 4.1 in experiment [8]. Further, the IC50 in the experiment on Plasmodium falciparum [2] was determined as 0.27 µM; with Plasmodium falciparum [4] it was 0.19 µM; in experiment [7], 11.1 µM; in the experiment with Leishmania tropica it was 1.09 µM; with Leishmania infantum it was 2.67 µM.
For the molecule `Cl.Fc1ccc(Nc2cc3nc4ccccc4n(-c4ccc(F)c(Cl)c4)c-3c/c2=N/CCCCCCC23CCCCN2CCCC3)cc1Cl`, the Ratio IC50 in [1] turned out to be 4.4; in the experiment on Plasmodium falciparum [3], 1.9; in experiment [5], 2.4; in experiment [6] it was 5.5; in experiment [8] it was 3.9. Also, the IC50 came to 0.57 µM with Plasmodium falciparum [2]; 0.31 µM in the experiment with Plasmodium falciparum [4]; 1.35 µM in experiment [7]; 0.24 µM with Leishmania tropica; 0.35 µM in the experiment on Leishmania infantum.
With `Clc1ccc(Nc2cc3nc4ccccc4n(-c4ccc(Cl)cc4)c-3c/c2=N/C[C@@H]2CCCN3CCCC[C@H]23)cc1`, the figures for the IC50 with Plasmodium falciparum [2] and in the experiment with Plasmodium falciparum [4] were 0.96 µM and 0.45 µM, respectively. In the experiment with Plasmodium falciparum [3], the “Ratio IC50” value is 2.1.
In the case of `CN(C)CCC/N=c1/cc2n(-c3ccc(Cl)cc3)c3ccccc3nc-2cc1Nc1cccnc1`, the Ratio IC50 in [1] was found to be 11.7; with Plasmodium falciparum [3], 0.7; in [5], 16.6; in [6], 6.1; in [8], 11.4. The IC50 turned out to be 0.28 µM in the experiment on Plasmodium falciparum [2]; 0.4 µM in the experiment with Plasmodium falciparum [4]; 4.66 µM in [7]; 0.77 µM with Leishmania tropica; 0.41 µM in the experiment on Leishmania infantum.
For the molecule `c1ccc(Nc2cc3nc4ccccc4n(-c4ccccc4)c-3c/c2=N/C[C@H]2CCCN3CCCC[C@H]23)cc1`, the IC50 with Plasmodium falciparum [2] was 0.24 µM; in the experiment with Plasmodium falciparum [4], 0.14 µM. The “Ratio IC50” value with Plasmodium falciparum [3] came to 1.7.
On to `Cl.Clc1ccc(Nc2cc3nc4ccccc4n(-c4ccc(Cl)cc4)c-3c/c2=N/CCC23CCCN2CCC3)cc1`, for which the Ratio IC50 was determined as 5.2 in experiment [1]; 2.4 in the experiment with Plasmodium falciparum [3]; 2.2 in experiment [5]; 1.8 in experiment [6]; 3.3 in experiment [8]. For the same molecule, the IC50 turned out to be 0.45 µM with Plasmodium falciparum [2]; 0.19 µM with Plasmodium falciparum [4]; 0.98 µM in experiment [7]; 0.54 µM in the experiment with Leishmania tropica; 0.3 µM in the experiment on Leishmania infantum.
For `c1ccc(Nc2cc3nc4ccccc4n(-c4ccccc4)c-3c/c2=N/C[C@@H]2CCCN3CCCC[C@H]23)cc1`, the IC50 came out at 0.81 µM with Plasmodium falciparum [2] and 0.37 µM in the experiment with Plasmodium falciparum [4]. Also, the “Ratio IC50” value in the experiment on Plasmodium falciparum [3] was found to be 2.2.
Regarding `COc1ccc(Nc2cc3nc4ccccc4n(-c4ccccc4)c-3c/c2=N/CCCCC23CCCCN2CCCC3)cn1.Cl`, the Ratio IC50 in [1] was 7.8; with Plasmodium falciparum [3], 0.4; in experiment [5] it was 18.1; in experiment [6], 2.7; in experiment [8], 1.4. The IC50 in the experiment with Plasmodium falciparum [2] is 0.35 µM; in the experiment on Plasmodium falciparum [4], 0.81 µM; in [7] it was 6.32 µM; in the experiment with Leishmania tropica, 2.32 µM; with Leishmania infantum it was 4.44 µM.
Turning to `Cl.c1ccc(-n2c3c/c(=N/CCCCC45CCCCN4CCCC5)c(Nc4cccnc4)cc-3nc3ccccc32)cc1`, the Ratio IC50 in experiment [1] was found to be 13.9; in the experiment with Plasmodium falciparum [3], 0.8; in experiment [5], 18.5; in experiment [6] it was 1.9; in experiment [8], 0.6. Also, the IC50 in the experiment with Plasmodium falciparum [2] stood at 0.21 µM; in the experiment on Plasmodium falciparum [4], 0.28 µM; in [7], 3.89 µM; with Leishmania tropica, 2.01 µM; in the experiment on Leishmania infantum, 6.02 µM.
In turn, `CCN(CC)CCCC(C)Nc1ccnc2cc(Cl)ccc12` (configuration not stated) [CHLOROQUINE] had an IC50 in experiment [7] of more than 38 µM.
For `Cl.c1ccc(Nc2cc3nc4ccccc4n(-c4ccccc4)c-3c/c2=N/CC23CCCN2CCC3)cc1`, the Ratio IC50 amounted to 4.1 in [1], 0.7 in the experiment on Plasmodium falciparum [3], 6 in [5] and 0.3 in experiment [6]. Besides, the IC50 turned out to be 0.44 µM in the experiment with Plasmodium falciparum [2], 0.64 µM in the experiment on Plasmodium falciparum [4], 2.65 µM in [7] and 9.85 µM with Leishmania tropica.
Take `c1ccc(Nc2cc3nc4ccccc4n(-c4ccccc4)c-3c/c2=N/CC[C@@H]2CCCN3CCCC[C@H]23)cc1`: the IC50 worked out at 0.27 µM in the experiment with Plasmodium falciparum [2] and 0.18 µM in the experiment with Plasmodium falciparum [4]. In addition, in the experiment with Plasmodium falciparum [3], the “Ratio IC50” value was found to be 1.5.
With `Cl.Fc1ccc(Nc2cc3nc4ccccc4n(-c4ccc(F)cc4)c-3c/c2=N/CCCCCCC23CCCCN2CCCC3)cc1`, the Ratio IC50 was 6.7 in [1]; 1.2 with Plasmodium falciparum [3]; 5.5 in experiment [5]; 5.5 in [6]; 4.3 in experiment [8]. The IC50 with Plasmodium falciparum [2] worked out at 0.34 µM; in the experiment with Plasmodium falciparum [4], 0.28 µM; in experiment [7], 1.87 µM; in the experiment on Leishmania tropica it was 0.33 µM; in the experiment with Leishmania infantum, 0.43 µM.
Take `Cl.Fc1ccc(Nc2cc3nc4ccccc4n(-c4ccc(F)cc4)c-3c/c2=N/CCCCC23CCCCN2CCCC3)cc1`: the Ratio IC50 turned out to be 8.2 in [1]; 1.6 in the experiment with Plasmodium falciparum [3]; 5 in experiment [5]; 2.3 in experiment [6]; 4.1 in [8]. Moreover, the IC50 in the experiment on Plasmodium falciparum [2] was determined as 0.39 µM; in the experiment with Plasmodium falciparum [4], 0.24 µM; in experiment [7] it was 1.96 µM; with Leishmania tropica it was 0.84 µM; in the experiment with Leishmania infantum, 0.48 µM.
As to `Cl.c1ccc(Nc2cc3nc4ccccc4n(-c4ccccc4)c-3c/c2=N/CCC23CCCN2CCC3)cc1`, the Ratio IC50 came to 5.5 in [1]; 0.9 in the experiment with Plasmodium falciparum [3]; 6.5 in experiment [5]; 1.7 in experiment [6]; 2.1 in experiment [8]. Also, the IC50 in the experiment on Plasmodium falciparum [2] is 0.29 µM; in the experiment on Plasmodium falciparum [4], 0.34 µM; in [7], 1.9 µM; in the experiment with Leishmania tropica, 1.1 µM; with Leishmania infantum, 0.91 µM.
Regarding `Cl.Clc1ccc(-n2c3c/c(=N/CCCCC45CCCCN4CCCC5)c(Nc4cccnc4)cc-3nc3ccccc32)cc1`, the Ratio IC50 in [1] was found to be 10.6; in the experiment with Plasmodium falciparum [3], 0.8; in [5], 12.9; in experiment [6], 6.9; in experiment [8], 6.9. The IC50 in the experiment on Plasmodium falciparum [2] was 0.18 µM; in the experiment on Plasmodium falciparum [4], 0.22 µM; in experiment [7], 2.33 µM; in the experiment with Leishmania tropica it was 0.34 µM; in the experiment with Leishmania infantum it was 0.34 µM.
As to `Cl.c1ccc(Nc2cc3nc4ccccc4n(-c4ccccc4)c-3c/c2=N/CCN2CCCC2)cc1`, the Ratio IC50 came out at 7.7 in experiment [1], 0.6 with Plasmodium falciparum [3], 12.6 in [5] and 0.1 in [6]. Besides, the IC50 in the experiment with Plasmodium falciparum [2] was found to be 0.11 µM; in the experiment on Plasmodium falciparum [4], 0.18 µM; in experiment [7], 1.39 µM; in the experiment with Leishmania tropica it was 12.3 µM.
On to `CC(C)/N=c1\cc2n(-c3ccc(Cl)cc3)c3ccccc3nc-2cc1Nc1ccc(Cl)cc1` [CLOFAZIMINE], for which the Ratio IC50 stood at 3.9 in experiment [1]; 1.5 with Plasmodium falciparum [3]; 2.6 in [5]; 6.3 in experiment [6]; 4.2 in [8]. Also, the IC50 with Plasmodium falciparum [2] turned out to be 7.02 µM; in the experiment with Plasmodium falciparum [4], 4.82 µM; in [7], 18.6 µM; with Leishmania tropica, 2.96 µM; with Leishmania infantum, 4.48 µM.

For orientation: IC50 means the midpoint of a concentration-inhibition curve.
